Drawing on ChEMBL document CHEMBL3817825, “Synthesis and biological evaluation of Schiff base-linked imidazolyl naphthalimides as novel potential anti-MRSA agents” (2016), this text covers MIC for seven molecules.

The subject of experiment [1] is Staphylococcus aureus. The experiment is described as follows: Antibacterial activity against methicillin-resistant Staphylococcus aureus N315 after 24 hrs by two fold serial dilution method. Type of experiment: functional. Particulars: N315, 24 h.
The test system of experiment [2] is Staphylococcus aureus. The experiment is described as follows: Antibacterial activity against Staphylococcus aureus ATCC25923 after 24 hrs by two fold serial dilution method. Type of experiment: functional. The following applies: ATCC25923, 24 h.
The subject of the next experiment is Bacillus subtilis. The experiment is described as follows: Antibacterial activity against Bacillus subtilis ATCC6633 after 24 hrs by two fold serial dilution method. Type of experiment: functional. The following applies: ATCC6633, 24 h.
A further experiment relates to Micrococcus luteus. The experiment is described as follows: Antibacterial activity against Micrococcus luteus ATCC4698 after 24 hrs by two fold serial dilution method. Type of experiment: functional. Particulars: ATCC4698, 24 h.
In experiment [3] the test system is Escherichia coli. The experiment is described as follows: Antibacterial activity against Escherichia coli DH52 after 24 hrs by two fold serial dilution method. Type of experiment: functional. The following applies: DH52, 24 h.
The subject of experiment [4] is Escherichia coli. The experiment is described as follows: Antibacterial activity against Escherichia coli JM109 after 24 hrs by two fold serial dilution method. Type of experiment: functional. Particulars: JM109, 24 h.
Another experiment has as its system Shigella dysenteriae. The experiment is described as follows: Antibacterial activity against Shigella dysenteriae after 24 hrs by two fold serial dilution method. Type of experiment: functional.
The test system of the next experiment is Pseudomonas aeruginosa. The experiment is described as follows: Antibacterial activity against Pseudomonas aeruginosa ATCC27853 after 24 hrs by two fold serial dilution method. Particulars: ATCC27853, 24 h. Type of experiment: functional.
The test system of another experiment is Bacillus. The experiment is described as follows: Antibacterial activity against Bacillus proteus ATCC13315 after 24 hrs by two fold serial dilution method. Particulars: ATCC13315, 24 h. Type of experiment: functional.
The next experiment deals with Salmonella typhi. The experiment is described as follows: Antibacterial activity against Bacillus typhi after 24 hrs by two fold serial dilution method. Type of experiment: functional, Salmonella enterica subsp. enterica serovar Typhi. The following applies: Salmonella enterica.
The subject of the next experiment is Candida albicans. The experiment is described as follows: Antifungal activity against Candida albicans ATCC76615 after 24 hrs by two fold serial dilution method. Type of experiment: functional. Particulars: ATCC76615, 24 h.
The subject of the next experiment is Candida. The experiment is described as follows: Antifungal activity against Candida mycoderma ATCC10231 after 24 hrs by two fold serial dilution method. Type of experiment: functional. The following applies: ATCC10231, 24 h.
Another experiment concerns Cyberlindnera jadinii. The experiment is described as follows: Antifungal activity against Candida utilis ATCC9950 after 24 hrs by two fold serial dilution method. Type of experiment: functional. The following applies: Williopsis jadinii, ATCC9950, 24 h.
The next experiment concerns Aspergillus flavus. The experiment is described as follows: Antifungal activity against Aspergillus flavus ATCC204304 after 24 hrs by two fold serial dilution method. Particulars: ATCC204304, 24 h. Type of experiment: functional.
Another experiment deals with Saccharomyces cerevisiae. The experiment is described as follows: Antifungal activity against Beer yeast ATCC9763 after 24 hrs by two fold serial dilution method. Type of experiment: functional. Particulars: ATCC9763, 24 h.

Molecules are shown by their SMILES. ≈ marks a conversion by molar mass, not a printed value.

Broadly, the MIC is the lowest concentration that inhibits growth of the organism. A higher MIC goes with a less susceptible organism. As to `CCCCc1nc(Cl)c(/C=N/N2C(=O)c3cccc4c(N5CCCCC5)ccc(c34)C2=O)[nH]1`, the MIC against Staphylococcus aureus [1] is 280 µM (≈ 130 µg/mL); in the experiment on Staphylococcus aureus [2] it was 280 µM (≈ 130 µg/mL); in the experiment on Bacillus subtilis it was 280 µM (≈ 130 µg/mL); against Micrococcus luteus, 280 µM (≈ 130 µg/mL); with Escherichia coli [3] it was 560 µM (≈ 260 µg/mL); with Escherichia coli [4], 560 µM (≈ 260 µg/mL). For the same molecule, the MIC is 0.28 µM (≈ 0.13 µg/mL) in the experiment with Shigella dysenteriae; 560 µM (≈ 260 µg/mL) in the experiment with Pseudomonas aeruginosa; 560 µM (≈ 260 µg/mL) against Bacillus; 0.56 µM (≈ 0.26 µg/mL) in the experiment with Salmonella typhi; 140 µM (≈ 65 µg/mL) with Candida albicans; 550 µM (≈ 255 µg/mL) in the experiment with Candida. Moreover, the MIC with Cyberlindnera jadinii stood at 280 µM (≈ 130 µg/mL); in the experiment on Aspergillus flavus, 550 µM (≈ 255 µg/mL); against Saccharomyces cerevisiae, 550 µM (≈ 255 µg/mL).

For the molecule `CCCCc1nc(Cl)c(/C=N/N2C(=O)c3cccc4c(N5CCOCC5)ccc(c34)C2=O)n1Cc1ccccc1F`, the MIC turned out to be 440 µM (≈ 253 µg/mL) against Staphylococcus aureus [1]; 220 µM (≈ 126 µg/mL) in the experiment with Staphylococcus aureus [2]; 440 µM (≈ 253 µg/mL) with Bacillus subtilis; 220 µM (≈ 126 µg/mL) with Micrococcus luteus; 440 µM (≈ 253 µg/mL) against Escherichia coli [3]; 110 µM (≈ 63.1 µg/mL) with Escherichia coli [4]. The MIC in the experiment on Shigella dysenteriae is 0.44 µM (≈ 0.253 µg/mL); against Pseudomonas aeruginosa it was 220 µM (≈ 126 µg/mL); in the experiment on Bacillus it was 440 µM (≈ 253 µg/mL); against Salmonella typhi, 0.44 µM (≈ 0.253 µg/mL); in the experiment on Candida albicans, 440 µM (≈ 253 µg/mL); in the experiment on Candida, 440 µM (≈ 253 µg/mL). In addition, the MIC against Cyberlindnera jadinii, in the experiment with Aspergillus flavus and against Saccharomyces cerevisiae was 440 µM (≈ 253 µg/mL) each time.

Consider `CCCCc1nc(Cl)c(/C=N/N2C(=O)c3cccc4c(N5CCOCC5)ccc(c34)C2=O)n1Cc1ccccc1Cl`, for which the minimum inhibitory concentration (MIC) is 430 µM (≈ 254 µg/mL) against Staphylococcus aureus [1]; 870 µM (≈ 514 µg/mL) in the experiment on Staphylococcus aureus [2]; 430 µM (≈ 254 µg/mL) against Bacillus subtilis; 870 µM (≈ 514 µg/mL) with Micrococcus luteus; 870 µM (≈ 514 µg/mL) against Escherichia coli [3]; 110 µM (≈ 65 µg/mL) against Escherichia coli [4]. Also, the minimum inhibitory concentration (MIC) in the experiment on Shigella dysenteriae worked out at 0.22 µM (≈ 0.13 µg/mL); in the experiment on Pseudomonas aeruginosa it was 870 µM (≈ 514 µg/mL); against Bacillus, 430 µM (≈ 254 µg/mL); against Salmonella typhi, 0.43 µM (≈ 0.254 µg/mL); in the experiment on Candida albicans, 430 µM (≈ 254 µg/mL); with Candida, 870 µM (≈ 514 µg/mL). For the same molecule, the MIC was 430 µM (≈ 254 µg/mL) against Cyberlindnera jadinii, 220 µM (≈ 130 µg/mL) in the experiment with Aspergillus flavus and 430 µM (≈ 254 µg/mL) in the experiment on Saccharomyces cerevisiae.

As for `CCCCc1nc(Cl)c(/C=N/N2C(=O)c3cccc4c(N5CCOCC5)ccc(c34)C2=O)n1Cc1ccc(F)cc1`, the MIC came out at 440 µM (≈ 253 µg/mL) in the experiment with Staphylococcus aureus [1]; 890 µM (≈ 511 µg/mL) with Staphylococcus aureus [2]; 440 µM (≈ 253 µg/mL) with Bacillus subtilis; 440 µM (≈ 253 µg/mL) against Micrococcus luteus; 890 µM (≈ 511 µg/mL) in the experiment with Escherichia coli [3]; 440 µM (≈ 253 µg/mL) against Escherichia coli [4]. Also, the MIC was 0.89 µM (≈ 0.511 µg/mL) in the experiment with Shigella dysenteriae; 890 µM (≈ 511 µg/mL) with Pseudomonas aeruginosa; 440 µM (≈ 253 µg/mL) in the experiment on Bacillus; 0.44 µM (≈ 0.253 µg/mL) with Salmonella typhi; 440 µM (≈ 253 µg/mL) against Candida albicans; 440 µM (≈ 253 µg/mL) with Candida. In addition, the figures for the MIC in the experiment with Cyberlindnera jadinii, against Aspergillus flavus and against Saccharomyces cerevisiae were 440 µM (≈ 253 µg/mL), 890 µM (≈ 511 µg/mL) and 890 µM (≈ 511 µg/mL), respectively.

Take `CCCCCn1c(CCCC)nc(Cl)c1/C=N/N1C(=O)c2cccc3c(N4CCOCC4)ccc(c23)C1=O`: the MIC with Staphylococcus aureus [1] is 480 µM (≈ 257 µg/mL); in the experiment with Staphylococcus aureus [2], 240 µM (≈ 129 µg/mL); in the experiment on Bacillus subtilis, 240 µM (≈ 129 µg/mL); with Micrococcus luteus it was 240 µM (≈ 129 µg/mL); in the experiment with Escherichia coli [3], 480 µM (≈ 257 µg/mL); against Escherichia coli [4], 480 µM (≈ 257 µg/mL). Also, the minimal inhibitory concentration (MIC) with Shigella dysenteriae amounted to 0.48 µM (≈ 0.257 µg/mL); against Pseudomonas aeruginosa it was 960 µM (≈ 515 µg/mL); against Bacillus, 480 µM (≈ 257 µg/mL); in the experiment on Salmonella typhi, 0.24 µM (≈ 0.129 µg/mL); in the experiment on Candida albicans, 480 µM (≈ 257 µg/mL); against Candida it was 480 µM (≈ 257 µg/mL). The MIC turned out to be 7 µM (≈ 3.75 µg/mL) against Cyberlindnera jadinii, 480 µM (≈ 257 µg/mL) in the experiment on Aspergillus flavus and 480 µM (≈ 257 µg/mL) in the experiment with Saccharomyces cerevisiae.

For `CCCCc1nc(Cl)c(/C=N/N2C(=O)c3cccc4c(N5CCOCC5)ccc(c34)C2=O)n1Cc1ccc(Cl)cc1`, the minimum inhibitory concentration (MIC) was found to be 430 µM (≈ 254 µg/mL) in the experiment with Staphylococcus aureus [1]; 870 µM (≈ 514 µg/mL) with Staphylococcus aureus [2]; 430 µM (≈ 254 µg/mL) against Bacillus subtilis; 430 µM (≈ 254 µg/mL) with Micrococcus luteus; 430 µM (≈ 254 µg/mL) against Escherichia coli [3]; 430 µM (≈ 254 µg/mL) with Escherichia coli [4]. Moreover, the MIC in the experiment with Shigella dysenteriae stood at 0.87 µM (≈ 0.514 µg/mL); in the experiment with Pseudomonas aeruginosa it was 870 µM (≈ 514 µg/mL); against Bacillus, 430 µM (≈ 254 µg/mL); in the experiment with Salmonella typhi it was 0.43 µM (≈ 0.254 µg/mL); in the experiment on Candida albicans, 430 µM (≈ 254 µg/mL); with Candida, 430 µM (≈ 254 µg/mL). In addition, the values for the MIC against Cyberlindnera jadinii, in the experiment on Aspergillus flavus and against Saccharomyces cerevisiae were 220 µM (≈ 130 µg/mL), 870 µM (≈ 514 µg/mL) and 220 µM (≈ 130 µg/mL), respectively.

As for `OC(Cn1cncn1)(Cn1cncn1)c1ccc(F)cc1F` [FLUCONAZOLE], the MIC in the experiment with Candida albicans turned out to be 3 µM (≈ 0.919 µg/mL); against Candida it was 10 µM (≈ 3.06 µg/mL); against Cyberlindnera jadinii it was 30 µM (≈ 9.19 µg/mL); in the experiment on Aspergillus flavus, 840 µM (≈ 257 µg/mL); with Saccharomyces cerevisiae, 50 µM (≈ 15.3 µg/mL).
